Columns and labels:
Assay type in all cases: cell-based, human
[1] = system: HL60-I cells; assay: metabolic complementation assay: lectin staining (VVA, LFA, TLM) of analogue-treated cells by flow cytometry; details: 5 mM, 24 h; for effect on VVA binding: decrease = masking of GalNAc by sialic acid
Procedure: Medium supplementation with some synthetic sialic acid analogues restores cell surface sialylation in hyposialylated HL60-I cells. Cells were cultivated in the presence of indicated synthetic sialic acid analogue (5 mM) for 24 h and stained with either directly fluorochrome-coupled lectins (VVA, LFA) or biotin-coupled lectin (TLM) and streptavidin-FITC and analyzed by flow cytometry. Values are given as “relative factor of change” (RFC) of the “mean fluorescence intensity” (MFI) of sialic acid-treated cells relative to untreated cells. The bars represent arithmetic means±SD (n^34) of one (x) or ≧two experiments.
To test whether cells can incorporate synthetic sialic acid analogues from the culture medium, a metabolic complementation assay was performed on endogenously hyposialylated, UDP-GlcNAc-2-epimerase-deficient HL60-I cells.
Cells were cultivated for 24 h in the presence of one of 16 different synthetic sialic acid analogues, carrying distinct C5 or C9 modifications (FIG. 1), and subsequently, changes in cell surface sialylation were assessed by flow cytometry using three fluorochrome-conjugated sialic acid-sensitive lectins. Vicia villosa agglutinin (VVA) detects GalNAc residues, and its binding sites can be masked by the addition of terminal sialic acid residues.
In sugar supplementation assays, cells seeded at 5×10^5 cells/ml in culture medium buffered with 40 mM HEPES (pH 7.2) were cultivated for 24 h in the presence or absence of 5 mM sialic acids (stocks of 100 mM dissolved in H2O, stored at 4° C.).
(§1) Lyophilized FITC-conjugated lectins Vicia villosa (VVA) was obtained from Sigma, dissolved in H2O (1 mg/ml), aliquoted and stored at −20° C. according to the manufacturer's instructions. FITC-conjugated Limax flavus agglutinin (LFA) was from EY Laboratories (San Manteo, Calif., USA) and biotin-coupled Tritrichomonas mobilensis agglutinin (TLM) from Calbiochem. Lectin staining procedure and fluorescence-activated cell scanning on a Becton Dickinson FACScan cytometer using Cellquest II software were carried out as described (Keppler, O. T., Molden-hauer, G., Oppenländer, M., Schwartz-Albiez, R., Berger, E. G., Funderud, S., and Pawlita, M. (1992) Eur J Immunol 22(11), 2777-81). Briefly, cells (3×10^5) were washed twice in cold PBS and then incubated in 100 μl PBS/0.05% NaN3, containing either fluorochrome-conjugated lectins VVA (50 μg/ml), LFA (20 μg/ml), or biotinylated TLM (20 μg/ml) for 45 min on ice in the dark. For biotinylated TLM a secondary incubation step with steptavidin-FITC (20 μg/ml) (Sigma) for 30 min on ice in the dark is required. After washing with PBS, cells were resuspended in 300 μl PBS and analyzed by flow cytometry.

[2] = system: HL60-I cells; assay: uptake of peracetylated/esterified NeuAc: VVA and TML lectin staining by flow cytometry; details: for effect on cell surface sialylation (VVA and TML binding): 0.03 to 1 mM (NeuAc 1 or 5 mM), 0.5% DMSO
Procedure: Peracetylation of NeuAc only facilitates uptake if the carboxyl group is additionally esterified. Hyposialylated HL60-I cells were cultivated in the presence of indicated synthetic sialic acid analogue (stock solution 200 mM in DMSO) ranging from 0.03 to 1 mM or 0, 1 or 5 mM NeuA for 72 h with DMSO concentrations adjusted to 0.5%. Cells were stained with either directly fluorochrome-coupled lectin VVA, or biotin-coupled lectin (TML) and streptavidin-FITC for analysis by flow cytometry. Values given are relative factors of change of the mean fluorescence intensity of pretreated cells relative to untreated cells. The bars represent arithmetic means±SD (n=3). Molecular structures are given below the diagram.
Sugars are very hydrophilic and it has been shown that increasing the hydrophobicity by peracetylation of hydroxyl groups enables or facilitates uptake of disaccharides (Collins, B. E., Fralich, T. J., Itonori, S., Ichikawa, Y. and Schnaar, R. L. (2000) Glycobiology, 10, 11-20; Sarkar, A. K., Fritz, T. A., Taylor, W. H. and Esko, J. D. (1995) Proc Natl Acad Sci USA, 92, 3323-7; Sarkar, A. K., Rostand, K. S., Jain, R. K., Matta, K. L. and Esko, J. D. (1997) J Biol Chem, 272, 25608-16). For ManNAc derivatives it has been shown that peracetylation reduces required medium concentrations (Collins et al., 2000). The acetyl groups are cleaved-off intracellularly by cellular esterases (Collins et al., 2000; Sarkar et al., 1995; Sarkar et al., 1997) and the derivatives are then processed as known for the non-acetylated sugars. In order to address the question whether peracetylation also facilitates uptake of N-acetylneuraminic acid, HL60-I cells were cultivated in the presence of peracetylated NeuAc at concentrations ranging from 0.03 mM to 1 mM for 3 days. Changes in cell surface sialylation were measured by flow cytometry using Vicia Villosa agglutinin (VVA) and Tritrichomonas mobilensis lectin (TML). […] This represents a reduction in concentration by more than 16-fold and is in a similar range as reported for peracetylated ManNAc and ManNAc (Collins et al., 2000).
as §1

[3] = system: BJA-B K20 cells; assay: HPLC of membrane-associated sialic acids from analogue-treated cells; details: serum-free, 5 mM, 48 h
Procedure: Sialic acid analogues are incorporated in cell surface glycoconjugates. HPLC chromatograms of DMB-derivatised sialic acids hydrolysed from glycoproteins of sialic acid analogue-treated BJA-B K20 cells. (A) standards, (B) untreated cells, (C) cells cultivated in 5-N-fluoroacNeu, (D) cells cultivated in 9-iodo-NeuAc. Peaks were identified as follows: NeuGc (internal standard), NeuAc, 5-N-fluoroac-Neu, 9-iodo-NeuAc, Na-pyruvate (internal standard). Internal standards were added to each sample.
To confirm that synthetic sialic acid analogues supplementing the medium were taken up and metabolically incorporated as analogues into surface sialoglyco-conjugates the membrane-associated sialic acid fraction was analyzed by High Performance Liquid Chromatography (HPLC). […]
To confirm that the modifications are still present after incorporation into glycoconjugates sialic acids were cleaved off cell surfaces and analyzed by HPLC. […] Sialic acids derivation was performed according to a method as given below and samples were analyzed on a reversed-phase C18 column as described (Keppler, O. T., Stehling, P., Herrmann, M., Kayser, H., Grunow, D., Reutter, W., and Pawlita, M. (1995) J Biol Chem 270(3), 1308-14).

SMILES: O=C(O)CCC(=O)N[C@H]1[C@H]([C@H](O)[C@H](O)CO)OC(O)(C(=O)O)C[C@@H]1O (stereo partly shown) [analogue m, 5-N-succinyl-neuraminic acid]
- effect on VVA binding [1]: weak or no effect on VVA binding

SMILES: CSC[C@@H](O)[C@@H](O)[C@@H]1OC(O)(C(=O)O)C[C@H](O)[C@H]1NC(C)=O (stereo partly shown) [analogue h, 5-N-acetyl-9-deoxy-9-methylthio-neuraminic acid]
- effect on LFA binding [1]: increased binding of LFA
- effect on TLM binding [1]: increased binding
- effect on VVA binding [1]: significantly decreased VVA-binding

SMILES: O=C(N[C@H]1[C@H]([C@H](O)[C@H](O)CO)OC(O)(C(=O)O)C[C@@H]1O)C(F)(F)F (stereo partly shown) [analogue k, 5-N-trifluoroacetyl-neuraminic acid]
- effect on VVA binding [1]: significantly decreased VVA-binding

SMILES: CC(=O)NC1C(OC(C)=O)CC(OC(C)=O)(C(=O)O)OC1C(OC(C)=O)C(COC(C)=O)OC(C)=O (stereo not shown) [NeuAcperOAc]
- effect on cell surface sialylation (VVA and TML binding) ([2]; HL60-I cells, 72 h): no effect on cell surface sialylation

SMILES: CC(=O)N[C@H]1[C@H]([C@H](O)[C@H](O)CS(C)(=O)=O)OC(O)(C(=O)O)C[C@@H]1O (stereo partly shown) [analogue i, 5-N-acetyl-9-deoxy-9-methylsulfonyl-neuraminic acid]
- effect on LFA binding [1]: increased binding of LFA
- effect on TLM binding [1]: increased binding
- effect on VVA binding [1]: significantly decreased VVA-binding

SMILES: CC(=O)N[C@H]1[C@H]([C@H](O)[C@H](O)CN)OC(O)(C(=O)O)C[C@@H]1O (stereo partly shown) [analogue b, 5-N-acetyl-9-amino-9-deoxy-neuraminic acid]
- changes in cell surface sialylation (lectin binding overall) [1]: failed to induce changes in cell surface sialylation

SMILES: CC(=O)N[C@H]1[C@H]([C@H](O)[C@H](O)CS)OC(O)(C(=O)O)C[C@@H]1O (stereo partly shown) [analogue g, 5-N-acetyl-9-deoxy-9-thio-neuraminic acid]
- effect on LFA binding [1]: increased binding of LFA
- effect on TLM binding [1]: increased binding
- effect on VVA binding [1]: significantly decreased VVA-binding

SMILES: NCC(=O)N[C@H]1[C@H]([C@H](O)[C@H](O)CO)OC(O)(C(=O)O)C[C@@H]1O (stereo partly shown) [analogue l, 5-N-aminoacetyl-neuraminic acid]
- effect on VVA binding [1]: weak or no effect on VVA binding

SMILES: CC(=O)NC[C@@H](O)[C@@H](O)[C@@H]1OC(O)(C(=O)O)C[C@H](O)[C@H]1NC(C)=O (stereo partly shown) [analogue c, 5-N-acetyl-9-acetamido-9-deoxy-neuraminic acid]
- changes in cell surface sialylation (lectin binding overall) [1]: failed to induce changes in cell surface sialylation

SMILES: COC(=O)C1(OC(C)=O)C[C@H](OC(C)=O)[C@@H](NC(C)=O)[C@H]([C@H](OC(C)=O)[C@@H](COC(C)=O)OC(C)=O)O1 (stereo partly shown) [NeuAcperOAc-Me-ester]
- reduction in concentration relative to NeuAc ([2]; 0.3 mM vs 5 mM NeuAc): more than 16 fold
- effect on cell surface sialylation (VVA and TML binding) ([2]; HL60-I cells, 72 h): strongly increased cell surface sialylation
- medium concentration showing similar effects as 5 mM NeuAc ([2]; HL60-I cells, 72 h): 0.3 mM

SMILES: CCOC(=O)C1(O)C[C@H](O)[C@@H](NC(C)=O)[C@H]([C@H](O)[C@H](O)CO)O1 (stereo partly shown) [analogue p, ethyl N-acetyl neuraminate]
- effect on LFA binding [1]: increased binding of LFA
- effect on TLM binding [1]: increased binding
- effect on VVA binding [1]: significantly decreased VVA-binding
- effect on LFA binding ([1]; listed as NeuAc-Et-Ester): very similar to those of NeuAc
- effect on TLM binding ([1]; listed as NeuAc-Et-Ester): very similar to those of NeuAc

SMILES: O=C(CF)N[C@H]1[C@H]([C@H](O)[C@H](O)CO)OC(O)(C(=O)O)C[C@@H]1O (stereo partly shown) [analogue j, 5-N-fluoroacetyl-neuraminic acid]
- share of membrane-associated sialic acids consisting of the analogue [3]: 90.5%
- effect on LFA binding [1]: increased binding of LFA
- effect on TLM binding [1]: increased binding
- effect on VVA binding [1]: significantly decreased VVA-binding

SMILES: CC(=O)N[C@H]1[C@H]([C@H](O)[C@H](O)CNC(=O)CN)OC(O)(C(=O)O)C[C@@H]1O (stereo partly shown) [analogue d, 9-N-aminoacetamido-9-deoxy-neuraminic acid]
- effect on VVA binding [1]: weak or no effect on VVA binding

SMILES: CC(=S)N[C@H]1[C@H]([C@H](O)[C@H](O)CO)OC(O)(C(=O)O)C[C@@H]1O (stereo partly shown) [analogue n, 5-N-thioacetyl-neuraminic acid]
- effect on TLM binding [1]: increased binding
- effect on VVA binding [1]: significantly decreased VVA-binding

SMILES: CC(=O)N[C@H]1[C@H]([C@H](O)[C@H](O)CNC(=O)CCC(=O)O)OC(O)(C(=O)O)C[C@@H]1O (stereo partly shown) [analogue e, 5-N-acetyl-9-deoxy-9-succinylamido-neuraminic acid]
- effect on VVA binding [1]: weak or no effect on VVA binding
